Laboratory results taken from ChEMBL document CHEMBL3352410 (J Med Chem, 2014).

Assays:
[1] = molecular target: T1, Kappa-type opioid receptor (Homo sapiens, UniProt P41145); experiment: Binding affinity to human kappa opioid receptor expressed in CHO cells; assay type: cell-based
[2] = molecular target: T2, Mu-type opioid receptor (Homo sapiens, UniProt P35372); experiment: Binding affinity to human mu opioid receptor expressed in CHO cells; assay type: cell-based
[3] = molecular target: T2, Mu-type opioid receptor; experiment: Antagonist activity at human mu opioid receptor expressed in CHO cells assessed as inhibition of DAMGO-stimulated [35S]GTPgammaS binding; assay type: functional, cell-based
[4] = molecular target: T3, Delta-type opioid receptor (Homo sapiens, UniProt P41143); experiment: Binding affinity to human delta opioid receptor expressed in CHO cells; assay type: cell-based
[5] = molecular target: T3, Delta-type opioid receptor; experiment: Antagonist activity at human delta opioid receptor expressed in CHO cells assessed as inhibition of DPDPE-stimulated [35S]GTPgammaS binding; assay type: functional, cell-based
[6] = molecular target: T1, Kappa-type opioid receptor; experiment: Antagonist activity at human kappa opioid receptor expressed in CHO cells assessed as inhibition of U69,593-stimulated [35S]GTPgammaS binding; assay type: functional, cell-based

T1 sequence (P41145 whole entry): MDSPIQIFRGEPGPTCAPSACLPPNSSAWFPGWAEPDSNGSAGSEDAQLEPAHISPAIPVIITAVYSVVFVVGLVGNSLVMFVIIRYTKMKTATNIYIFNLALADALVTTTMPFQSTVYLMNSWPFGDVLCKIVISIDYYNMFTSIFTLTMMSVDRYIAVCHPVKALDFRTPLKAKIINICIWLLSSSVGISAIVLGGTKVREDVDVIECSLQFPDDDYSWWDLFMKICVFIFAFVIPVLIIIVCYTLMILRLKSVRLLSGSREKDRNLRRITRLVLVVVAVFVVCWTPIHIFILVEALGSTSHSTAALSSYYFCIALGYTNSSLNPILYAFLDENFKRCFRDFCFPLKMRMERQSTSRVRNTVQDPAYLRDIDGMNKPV
T2 sequence (P35372 whole entry): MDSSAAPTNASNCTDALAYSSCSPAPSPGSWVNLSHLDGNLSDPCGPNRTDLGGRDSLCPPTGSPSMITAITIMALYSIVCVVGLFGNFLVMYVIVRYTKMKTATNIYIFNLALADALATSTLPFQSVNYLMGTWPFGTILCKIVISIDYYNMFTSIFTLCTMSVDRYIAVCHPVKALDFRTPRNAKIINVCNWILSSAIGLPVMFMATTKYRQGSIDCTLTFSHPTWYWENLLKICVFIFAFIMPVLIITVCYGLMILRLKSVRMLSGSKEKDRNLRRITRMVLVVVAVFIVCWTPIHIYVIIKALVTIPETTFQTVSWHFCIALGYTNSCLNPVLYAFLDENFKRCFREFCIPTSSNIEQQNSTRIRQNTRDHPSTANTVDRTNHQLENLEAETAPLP
T3 sequence (P41143 whole entry): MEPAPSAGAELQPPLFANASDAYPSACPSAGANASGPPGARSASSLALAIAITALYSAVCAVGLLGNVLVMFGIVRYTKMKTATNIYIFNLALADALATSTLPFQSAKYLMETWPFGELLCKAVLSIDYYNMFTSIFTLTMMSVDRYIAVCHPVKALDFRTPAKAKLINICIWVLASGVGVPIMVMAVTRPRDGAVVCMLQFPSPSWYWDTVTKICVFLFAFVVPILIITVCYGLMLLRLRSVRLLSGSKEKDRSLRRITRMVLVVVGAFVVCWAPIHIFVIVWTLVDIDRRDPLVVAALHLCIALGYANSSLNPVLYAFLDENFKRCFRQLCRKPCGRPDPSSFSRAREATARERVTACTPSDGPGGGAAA

Work on `C[C@H]1CN(CC[C@H](O)C2CCCCC2)CC[C@@]1(C)c1ccccc1` yielded a Ki [1] of 749 nM, a Ki [2] of 7.7 nM and a Kb [3] of 1.6 nM. It also gave a Ki [4] of 169 nM, a Kb [5] of 47.1 nM and a Kb [6] of 40.6 nM.
